The values that follow come from PubChem BioAssay AID206 (DTP/NCI, 2004).

“And” between values parts separate entries of the source, which are not always exact repeats. Identical values can stand only once. Records with an inconclusive call do not appear.

The subject of this experiment is nude mice, HT29 intrarenal xenograft, tumor weight T/C. As to the kind of experiment: NCI In Vivo Anticancer Drug Screen. Data for tumor model HT29;CX-1 Human Adenocarcinoma (MER+) (intrarenal inoculation) in NU/NU Swiss (nude) mice. As to conditions: endpoint: mean tumor weight change, higher = larger tumour. The method in brief: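 Readout: treated/vehicle-control ratio of the measured endpoint (tumor size or survival) in transplanted-tumor mice.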

Where [1] appears, read: dose: 150.0 mg/kg/injection, schedule: Q04DX004 (sc), vehicle: saline with Tween-80.
Where [2] appears, read: dose: 600.0 mg/kg/injection, schedule: Q04DX004 (sc), vehicle: saline with Tween-80.
Setting [3] is: dose: 1200.0 mg/kg/injection, schedule: Q04DX004 (sc), vehicle: saline with Tween-80.
[4] abbreviates: dose: 8.0 mg/kg/injection, schedule: Q01DX010 (sc), vehicle: saline.

For `CCCCCC(=O)O[C@]1(C(C)=O)CC[C@H]2[C@@H]3CCC4=CC(=O)CC[C@]4(C)[C@H]3CC[C@@]21C`, the T/C runs as follows: (dose: 225.0 mg/kg/injection, schedule: Q04DX004 (sc), vehicle: Klucel (hydroxypropylcellulose) (HPC)) 73 % of control; (dose: 450.0 mg/kg/injection, schedule: Q04DX004 (sc), vehicle: Klucel (hydroxypropylcellulose) (HPC)) 46 % of control; (dose: 900.0 mg/kg/injection, schedule: Q04DX004 (sc), vehicle: Klucel (hydroxypropylcellulose) (HPC)) 58 % of control; (dose: 1800.0 mg/kg/injection, schedule: Q04DX004 (sc), vehicle: Klucel (hydroxypropylcellulose) (HPC)) 36 % of control.

As to `COC1C(CO)OC(n2cnc3c(=S)nc(N)[nH]c32)C1O` (stereo not drawn), the T/C (dose: 150.0 mg/kg/injection, schedule: Q04DX004 (sc), vehicle: Klucel (hydroxypropylcellulose) (HPC)) was 116 % of control.

`C=CCc1cn(C2CC(O)C(CO)O2)c(=O)[nH]c1=O` (stereo not drawn): the T/C reads like this: (dose: 300.0 mg/kg/injection, schedule: Q04DX004 (sc), vehicle: saline) 71 % of control; (dose: 600.0 mg/kg/injection, schedule: Q04DX004 (sc), vehicle: saline) 99 % of control; (dose: 1200.0 mg/kg/injection, schedule: Q04DX004 (sc), vehicle: saline) 64 % of control; (dose: 2400.0 mg/kg/injection, schedule: Q04DX004 (sc), vehicle: saline) 71 % of control.

With `CC(=O)NCCCCCCNC(C)=O`, the T/C was 88 % of control (dose: 200.0 mg/kg/injection, schedule: Q01DX010 (sc), vehicle: saline); 95 % of control (dose: 800.0 mg/kg/injection, schedule: Q01DX010 (sc), vehicle: saline); 97 % of control and 117 % of control (dose: 1600.0 mg/kg/injection, schedule: Q01DX010 (sc), vehicle: saline); 110 % of control (dose: 3200.0 mg/kg/injection, schedule: Q01DX010 (sc), vehicle: saline).

On to `CCN(CC)CCNc1ccc(C)c2sc3ccc(O)cc3c(=O)c12`, for which the T/C is 53 % of control (dose: 75.0 mg/kg/injection, schedule: Q04DX004 (sc), vehicle: saline with Tween-80); 74 % of control under setting [1]; 103 % of control under setting [2]; 41 % of control under setting [3]; 58 % of control (dose: 2400.0 mg/kg/injection, schedule: Q04DX004 (sc), vehicle: saline with Tween-80).

Consider `COC1/C=C/C=C(/C)Cc2cc(O)c(Cl)c(c2)N(C)C(=O)CC(OC(=O)C(C)C)C2(C)OC2C(C)C2CC1(O)NC(=O)O2` (stereo not drawn), for which the T/C is 123 % of control (dose: 0.5 mg/kg/injection, schedule: Q04DX004 (sc), vehicle: saline + alcohol); 78 % of control (dose: 1.0 mg/kg/injection, schedule: Q04DX004 (sc), vehicle: saline + alcohol); 78 % of control (dose: 2.0 mg/kg/injection, schedule: Q04DX004 (sc), vehicle: saline + alcohol); 65 % of control (dose: 4.0 mg/kg/injection, schedule: Q04DX004 (sc), vehicle: saline + alcohol).

For the compound `Nc1n[n+](-c2ccc(Cl)cc2)no1`, the T/C runs as follows: (dose: 25.0 mg/kg/injection, schedule: Q04DX004 (sc), vehicle: water) 95 % of control; (dose: 50.0 mg/kg/injection, schedule: Q04DX004 (sc), vehicle: water) 121 % of control; (dose: 100.0 mg/kg/injection, schedule: Q04DX004 (sc), vehicle: water) 102 % of control.

Take `Cc1c(N)nc(C(CC(N)=O)NCC(N)C(N)=O)nc1C(=O)NC(C(=O)NC(C)C(O)CC(=O)NC(C(=O)NC(OC1OC(C)C(N)C(O)C1O)C(O)c1nc(-c2nc(C(=O)NCCCC(N)CC(=O)NCCCNCCCCN)cs2)cs1)C(C)O)C(OC1OC(CO)C(O)C(O)C1OC1OC(CO)C(O)C(OC(N)=O)C1O)c1cnc[nH]1` (stereo not drawn): the T/C is, setting by setting: (dose: 8.0 mg/kg/injection, schedule: Q04DX004 (sc), vehicle: saline) 17 % of control; (dose: 16.0 mg/kg/injection, schedule: Q04DX004 (sc), vehicle: saline) 21 % of control.

For `C[C@@H]1C[C@H]2[C@@H]3CCC4=CC(=O)C=C[C@]4(C)[C@@]3(F)[C@@H](O)C[C@]2(C)[C@@]1(O)C(=O)CO`, the T/C (dose: 1.56 mg/kg/injection, schedule: Q01DX010 (sc), vehicle: Klucel (hydroxypropylcellulose) (HPC)) was 62 % of control; the T/C (dose: 3.13 mg/kg/injection, schedule: Q01DX010 (sc), vehicle: Klucel (hydroxypropylcellulose) (HPC)) is 40 % of control; the T/C (dose: 6.25 mg/kg/injection, schedule: Q01DX010 (sc), vehicle: Klucel (hydroxypropylcellulose) (HPC)) was 42 % of control; the T/C (dose: 12.5 mg/kg/injection, schedule: Q01DX010 (sc), vehicle: Klucel (hydroxypropylcellulose) (HPC)) was 39 % of control.

Take `COC1/C=C\C=C(/C)C(=O)NC2=CC(=O)C=C(C2=O)C(OC)C(C)CC(OC)C(OC)C(C)/C=C(/C)C1OC(N)=O` (stereo not drawn): the T/C reads like this: (dose: 2.25 mg/kg/injection, schedule: Q04DX004 (sc), vehicle: Klucel (hydroxypropylcellulose) (HPC)) 92 % of control and 95 % of control; (dose: 4.5 mg/kg/injection, schedule: Q04DX004 (sc), vehicle: Klucel (hydroxypropylcellulose) (HPC)) 33 % of control; (dose: 9.0 mg/kg/injection, schedule: Q04DX004 (sc), vehicle: Klucel (hydroxypropylcellulose) (HPC)) 4 % of control.

On to `N[C@H](C(=O)O)[C@@H]1CC(Cl)=NO1`, for which the T/C is, setting by setting: (dose: 4.0 mg/kg/injection, schedule: Q01DX010 (sc), vehicle: saline) 21 % of control; under setting [4], 35 % of control.

`O=c1n(CC2CO2)c(=O)n(CC2CO2)n1CC1CO1` (stereo not drawn): the T/C (dose: 37.5 mg/kg/injection, schedule: Q04DX004 (sc), vehicle: suspension in saline) is 76 % of control.

Take `O=C(Nc1cccc(Cl)c1)ON1C(=O)C2C(C1=O)C1(Cl)C(Cl)C(Cl)C2(Cl)C1(Cl)Cl` (stereo not drawn): the T/C was 90 % of control under setting [1], 169 % of control under setting [2] and 89 % of control under setting [3].

Regarding `Cc1ncc(CNC(=O)N(CCCl)N=O)c(N)n1`, the T/C runs as follows: (dose: 9.38 mg/kg/injection, schedule: Q04DX004 (sc), vehicle: saline) 55 % of control; (dose: 18.75 mg/kg/injection, schedule: Q04DX004 (sc), vehicle: saline) 39 % of control.

On to `CCCCCc1cc(O)c2c(c1)OC(C)(C)[C@@H]1CCC(C)=C[C@@H]21`, for which the T/C is, setting by setting: (dose: 150.0 mg/kg/injection, schedule: Q04DX004 (sc), vehicle: other) 117 % of control; (dose: 300.0 mg/kg/injection, schedule: Q04DX004 (sc), vehicle: other) 76 % of control; (dose: 600.0 mg/kg/injection, schedule: Q04DX004 (sc), vehicle: other) 68 % of control; (dose: 1200.0 mg/kg/injection, schedule: Q04DX004 (sc), vehicle: other) 36 % of control.

In the case of `CCCCNCCCNCCCNC(=O)c1csc(-c2csc(CCNC(=O)C(NC(=O)C(C)C(O)C(C)NC(=O)C(NC(=O)c3nc(C(CC(N)=O)NCC(N)C(N)=O)nc(N)c3C)C(OC3OC(CO)C(O)C(O)C3OC3OC(CO)C(O)C(OC(N)=O)C3O)c3cnc[nH]3)C(C)O)n2)n1` (stereo not drawn), the T/C is, setting by setting: under setting [4], 69 % of control and 83 % of control; (dose: 16.0 mg/kg/injection, schedule: Q01DX010 (sc), vehicle: saline) 76 % of control and 80 % of control; (dose: 32.0 mg/kg/injection, schedule: Q01DX010 (sc), vehicle: saline) 66 % of control and 68 % of control; (dose: 64.0 mg/kg/injection, schedule: Q01DX010 (sc), vehicle: saline) 23 % of control and 25 % of control.

Take `[I][Hg][CH2]C1OCCOC1[CH2][Hg][I]` (stereo not drawn): the T/C was 81 % of control (dose: 300.0 mg/kg/injection, schedule: Q04DX004 (sc), vehicle: Klucel (hydroxypropylcellulose) (HPC)); 104 % of control (dose: 600.0 mg/kg/injection, schedule: Q04DX004 (sc), vehicle: Klucel (hydroxypropylcellulose) (HPC)); 80 % of control (dose: 1200.0 mg/kg/injection, schedule: Q04DX004 (sc), vehicle: Klucel (hydroxypropylcellulose) (HPC)); 73 % of control (dose: 2400.0 mg/kg/injection, schedule: Q04DX004 (sc), vehicle: Klucel (hydroxypropylcellulose) (HPC)).

Regarding `COc1cccc2c1C(=O)c1c(O)c3c(c(O)c1C2=O)C[C@@](O)(/C(CO)=N/NC(=O)c1ccc(Cl)c(Cl)c1)C[C@@H]3OC1CC(N)C(O)C(C)O1` (stereo partly drawn), the T/C is 226 % of control (dose: 4.0 mg/kg/injection, schedule: Q01DX010 (sc), vehicle: water); 88 % of control (dose: 8.0 mg/kg/injection, schedule: Q01DX010 (sc), vehicle: water); 113 % of control (dose: 20.0 mg/kg/injection, schedule: Q04DX004 (sc), vehicle: water); 59 % of control (dose: 40.0 mg/kg/injection, schedule: Q04DX004 (sc), vehicle: water).
